This is an account of results in patent US20170189294A1, “Non-Irritating, Non-Whitening Photoprotective Compositions” (Eveready Battery Company, Inc., priority 2013, published 2017).

Data set [1] is described as follows: solubility/compatibility and stability observations in the compositions. Type of data set: physicochemical. The settings on record: three (3) months at 40° C. An excerpt: With regard to the photoprotective compositions of the present disclosure, it was observed that high levels of isohexadecane, especially those of about 70 wt. %, limited the solubility and/or compatibility of other ingredients which cause undesirable characteristics within the entire photoprotective composition such as, i.e., hazing, oily segregation, and/or precipitation from the composition, and combinations thereof. […] Dimethicone with a viscosity of about 350 cst at a 1 wt. % concentration, for example, causes hazing.

A further data set in a line: flame extension test. Type of data set: physicochemical. Particulars: propellant. The procedure:
In one embodiment, the photoprotective composition concentrate and propellant are added to an aerosol container in a ratio of about 70:30 to about 60:40. The tetraflouroethane and difluoroethane propellants were tested and are non-flammable in view of the flame extension test.
In another embodiment, the photoprotective composition concentrate and propellant are added to an aerosol container in a ratio of about 70:30. The tetraflouroethane and isobutene propellants were evaluated to determine what blends of tetraflouroethane and isobutene propellants would provide a non-flammable product at a reasonable cost. […] In some embodiments having a photoprotective composition comprising a concentrate and at least one propellant, the ratio of the photoprotective composition and the propellant can be between about 2.5:1 and about 1.25:1.

Consider `COc1ccc(C(=O)CC(=O)c2ccc(C(C)(C)C)cc2)cc1` [avobenzone], for which the storage stability entry in data set [1] is “crystals appeared”.
With `CC(F)F` [difluoroethane, 1,1-difluoroethane], the flammability entry in “flame extension test” is “non-flammable”.
On the same count and under the same terms, to `FCC(F)(F)F` [tetraflouroethane] belongs “non-flammable”.
